As usually defined, the IC50 is the concentration at which inhibition is half-maximal.

The test system of the test is P. falciparum K1 (strain resistant to chloroquine and pyrimethamine), erythrocytic stages. Put plainly: Plasmodium falciparum in vitro assay, [3H] hypoxanthine incorporation. The test is classed as cell-based. Conditions: Plasmodium falciparum, K1, P. falciparum strain K1; [3H] hypoxanthine incorporation; read-out: IC50 (nM) on K1. An outline of the steps: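 Chloroquine/pyrimethamine-resistant K1 erythrocytic cultures (2.5% haematocrit, 0.3% parasitaemia, hypoxanthine-free RPMI with Albumax) exposed to seven doubling dilutions at 37 °C under low O2.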
Regarding `COCCN(C)C(=O)[C@H](Cc1ccccc1)N(Cc1ccc(N2CCN(C(C)=O)CC2)cc1)C(=O)C=Cc1c(C)noc1C` [Example 109, (S)-N-[4-(4-Acetyl-piperazin-1-yl)-benzyl]-3-(3,5-dimethyl-isoxazol-4-yl)-N-{1-[(2-methoxy-ethyl)-methyl-carbamoyl]-2-phenyl-ethyl}-acrylamide], the concentration for half-maximal inhibition (IC50) amounted to 100 nM.

Regarding `COCCN(C)C(=O)[C@H](Cc1ccccc1)N(Cc1ccc(N2CCOCC2)cc1)C(=O)C=Cc1ccc(C)nc1` [Example 69, (S)-N-{1-[(2-Methoxy-ethyl)-methyl-carbamoyl]-2-phenyl-ethyl}-3-(6-methyl-pyridin-3-yl)-N-(4-morpholin-4-yl-benzyl)-acrylamide], the IC50 was determined as 169 nM.

For `COCCN(C)C(=O)C(Cc1ccn(C)n1)N(Cc1ccc(-c2ccncc2)cc1)C(=O)C=Cc1ccc(C(F)(F)F)cc1` (racemic) [Example 167], the IC50 is 41 nM.

As to `Cc1nc(C=CC(=O)N(Cc2ccc(-c3ccccn3)cc2)[C@@H](Cc2ccccc2)C(=O)N2CCC(N(C)C)CC2)cs1` [Example 11, (S)-N-[1-Benzyl-2-(4-dimethylamino-piperidin-1-yl)-2-oxo-ethyl]-3-(2-methyl-thiazol-4-yl)-N-(4-pyridin-2-yl-benzyl)-acrylamide], the IC50 came out at 315 nM.

As to `CN(C)C1CCN(C(=O)[C@H](Cc2ccccc2)N(Cc2ccc(N3CCOCC3)cc2)C(=O)C=Cc2ccc(C(F)(F)F)cn2)CC1` [Example 4, (S)-N-[1-Benzyl-2-(4-dimethylamino-piperidin-1-yl)-2-oxo-ethyl]-N-(4-morpholin-4-yl-benzyl)-3-(5-trifluoromethyl-pyridin-2-yl)-acrylamide], the IC50 was determined as 323 nM.

In the case of `CN(C)[C@H]1CCN(C(=O)[C@H](Cc2ccccc2)N(Cc2ccc(-c3ccccn3)cc2)C(=O)C=Cc2ccc(C(F)(F)F)cc2)C1` [Example 54, N-[(S)-1-Benzyl-2-((S)-3-dimethylamino-pyrrolidin-1-yl)-2-oxo-ethyl]-N-(4-pyridin-2-yl-benzyl)-3-(4-trifluoromethyl-phenyl)-acrylamide], the concentration for half-maximal inhibition (IC50) is 17 nM.

Consider `CC(=O)N1CCN(c2ccc(CN(C(=O)C=Cc3ccc(C(F)(F)F)cc3)[C@@H](Cc3ccccc3)C(=O)N(C)CCOc3ncccn3)cc2)CC1` [Example 180, (S)-N-[4-(4-Acetyl-piperazin-1-yl)-benzyl]-N-(1-{methyl-[2-(pyrimidin-2-yloxy)-ethyl]-carbamoyl}-2-phenyl-ethyl)-3-(4-trifluoromethyl-phenyl)-acrylamide], for which the IC50 amounted to 38 nM.

On to `CN(C)C1CCN(C(=O)C(Cc2ccn(C)n2)N(Cc2ccc(-c3ccncc3)cc2)C(=O)C=Cc2ccc(C(F)(F)F)cc2)CC1` (racemic) [Example 140], for which the IC50 came to 191 nM.

`Cc1noc(C)c1C=CC(=O)N(Cc1ccc(-c2cncnc2)cc1)[C@@H](Cc1ccccc1)C(=O)N1CCC(N(C)C)CC1` [Example 38, (S)-N-[1-Benzyl-2-(4-dimethylamino-piperidin-1-yl)-2-oxo-ethyl]-3-(3,5-dimethyl-isoxazol-4-yl)-N-(4-pyrimidin-5-yl-benzyl)-acrylamide]: the half-inhibitory concentration (IC50) worked out at 417 nM.

With `CC(=O)N1CCN(c2ccc(CN(C(=O)C=Cc3ccc(C(F)(F)F)nc3)[C@@H](Cc3ccccc3)C(=O)N(C)CCOCc3ccncc3)cc2)CC1` [Example 208, (S)-N-[4-(4-Acetyl-piperazin-1-yl)-benzyl]-N-(1-{methyl-[2-(pyridin-4-ylmethoxy)-ethyl]-carbamoyl}-2-phenyl-ethyl)-3-(6-trifluoromethyl-pyridin-3-yl)-acrylamide], the half-inhibitory concentration (IC50) was determined as 57 nM.

Turning to `COCCN(C)C(=O)[C@H](Cc1ccccc1)N(Cc1ccc(N2CCOCC2)cc1)C(=O)C=Cc1cnc(OC)nc1` [Example 72, (S)-N-{1-[(2-Methoxy-ethyl)-methyl-carbamoyl]-2-phenyl-ethyl}-3-(2-methoxy-pyrimidin-5-yl)-N-(4-morpholin-4-yl-benzyl)-acrylamide], the IC50 stood at 344 nM.

As to `COCCN(C)C(=O)[C@H](Cc1ccccc1)N(Cc1ccc(N2CCOCC2)cc1)C(=O)C=Cc1ccc(C(F)(F)F)cn1` [Example 67, (S)-N-{1-[(2-Methoxy-ethyl)-methyl-carbamoyl]-2-phenyl-ethyl}-N-(4-morpholin-4-yl-benzyl)-3-(5-trifluoromethyl-pyridin-2-yl)-acrylamide], the IC50 was below 8 nM.

For `COCCN(C)C(=O)[C@H](Cc1ccccc1)N(Cc1ccc(N2CCOCC2)cc1)C(=O)C=Cc1c(C)nn(C)c1C` [Example 60, (S)-N-{1-[(2-Methoxy-ethyl)-methyl-carbamoyl]-2-phenyl-ethyl}-N-(4-morpholin-4-yl-benzyl)-3-(1,3,5-trimethyl-1H-pyrazol-4-yl)-acrylamide], the IC50 turned out to be 48 nM.

Turning to `CC(=O)N1CCN(c2ccc(CN(C(=O)C=Cc3ccc(C(F)(F)F)cc3)[C@@H](Cc3ccccc3)C(=O)N(C)CCOCc3ccccn3)cc2)CC1` [Example 214, (S)-N-[4-(4-Acetyl-piperazin-1-yl)-benzyl]-N-(1-{methyl-[2-(pyridin-2-ylmethoxy)-ethyl]-carbamoyl}-2-phenyl-ethyl)-3-(4-trifluoromethyl-phenyl)-acrylamide], the concentration for half-maximal inhibition (IC50) stood at 23 nM.

Turning to `COCCN(C)C(=O)C(CN1CCOC1=O)N(Cc1ccc(-c2ccncc2)cc1)C(=O)C=Cc1ccc(C(F)(F)F)cc1` (racemic) [Example 284], the 50% inhibitory concentration (IC50) came to 362 nM.

`CC(=O)N1CCN(c2ccc(CN(C(=O)C=Cc3ccc(C(F)(F)F)cc3)[C@@H](Cc3ccccc3)C(=O)N(C)CCOCc3ccncc3)cc2)CC1` [Example 205, (S)-N-[4-(4-Acetyl-piperazin-1-yl)-benzyl]-N-(1-{methyl-[2-(pyridin-4-ylmethoxy)-ethyl]-carbamoyl}-2-phenyl-ethyl)-3-(4-trifluoromethyl-phenyl)-acrylamide]: the IC50 is 16 nM.

`COCCN(C)C(=O)[C@H](Cc1ccccc1)N(Cc1ccc(N2CCOCC2)nc1)C(=O)C=Cc1ccc(OC)cc1` [Example 159, (S)-N-{1-[(2-Methoxy-ethyl)-methyl-carbamoyl]-2-phenyl-ethyl}-3-(4-methoxy-phenyl)-N-(6-morpholin-4-yl-pyridin-3-ylmethyl)-acrylamide]: the IC50 is 49 nM.

Consider `COCCN(C)C(=O)C(Cn1ccnc1)N(Cc1ccc(-c2ccccn2)cc1)C(=O)C=Cc1ccc(C(F)(F)F)cc1` (racemic) [Example 281], for which the IC50 worked out at 448 nM.

For `CN(CCN(C)C(=O)[C@H](Cc1ccccc1)N(Cc1ccc(-c2ccccn2)cc1)C(=O)C=Cc1ccc(C(F)(F)F)cc1)Cc1ccc(CO)o1` [Example 228, (S)-N-[1-({2-[(5-Hydroxymethyl-furan-2-ylmethyl)-methyl-amino]-ethyl}-methyl-carbamoyl)-2-phenyl-ethyl]-N-(4-pyridin-2-yl-benzyl)-3-(4-trifluoromethyl-phenyl)-acrylamide], the half-inhibitory concentration (IC50) was found to be 9 nM.

Turning to `CN(CCN(C)C(=O)[C@H](Cc1ccccc1)N(Cc1ccc(-c2ccccn2)cc1)C(=O)C=Cc1ccc(C(F)(F)F)cc1)Cc1ccc(Br)nc1` [Example 227, (S)-N-[1-({2-[(6-Bromo-pyridin-3-ylmethyl)-methyl-amino]-ethyl}-methyl-carbamoyl)-2-phenyl-ethyl]-N-(4-pyridin-2-yl-benzyl)-3-(4-trifluoromethyl-phenyl)-acrylamide], the IC50 came to 18 nM.

`CN(Cc1ccc(NC(=O)C2CC2)cc1)C(=O)[C@H](Cc1ccccc1)N(Cc1ccc(N2CCOCC2)cc1)C(=O)C=Cc1ccc(C(F)(F)F)nc1` [Example 273, (S)-Cyclopropanecarboxylic acid (4-{[methyl-(2-{(4-morpholin-4-yl-benzyl)-[3-(6-trifluoromethyl-pyridin-3-yl)-acryloyl]-amino}-3-phenyl-propionyl)-amino]-methyl}-phenyl)-amide]: the half-maximal inhibitory concentration (IC50) came out at 75 nM.

As to `COCCN(C)C(=O)[C@H](Cc1ccccc1)N(Cc1ccc(-c2ccccn2)cc1)C(=O)C=Cc1cnc(C(F)(F)F)nc1` [Example 88, (S)-N-{1-[(2-Methoxy-ethyl)-methyl-carbamoyl]-2-phenyl-ethyl}-N-(4-pyridin-2-yl-benzyl)-3-(2-trifluoromethyl-pyrimidin-5-yl)-acrylamide], the concentration for half-maximal inhibition (IC50) worked out at 45 nM.

`COCCN(C)C(=O)C(Cc1ccnn1C)N(Cc1ccc(-c2ccncc2)cc1)C(=O)C=Cc1ccc(C(F)(F)F)cc1` (racemic) [Example 168]: the concentration for half-maximal inhibition (IC50) came to 349 nM.

On to `COCCN(C)C(=O)[C@H](Cc1ccccc1)N(Cc1ccc(-c2ccccn2)cc1)C(=O)C=Cc1sc(C)nc1C` [Example 77, (S)-3-(2,4-Dimethyl-thiazol-5-yl)-N-{1-[(2-methoxy-ethyl)-methyl-carbamoyl]-2-phenyl-ethyl}-N-(4-pyridin-2-yl-benzyl)-acrylamide], for which the IC50 was found to be 23 nM.

For the molecule `CC(=O)N1CCN(c2ccc(CN(C(=O)C=Cc3ccc(C(F)(F)F)cc3)[C@@H](Cc3ccccc3)C(=O)N(C)CCN(C)Cc3cccnc3)cc2)CC1` [Example 241, (S)-N-[4-(4-Acetyl-piperazin-1-yl)-benzyl]-N-(1-{methyl-[2-(methyl-pyridin-3-ylmethyl-amino)-ethyl]-carbamoyl}-2-phenyl-ethyl)-3-(4-trifluoromethyl-phenyl)-acrylamide], the half-maximal inhibitory concentration (IC50) was 27 nM.

In the case of `CN(C)C1CCN(C(=O)C(Cc2ccnn2C)N(Cc2ccc(-c3ccccn3)cc2)C(=O)C=Cc2ccc(C(F)(F)F)cc2)CC1` (racemic) [Example 142], the 50% inhibitory concentration (IC50) came to 460 nM.

`O=C([C@H](Cc1ccccc1)N(Cc1ccccc1)C(=O)C=Cc1ccc(C(F)(F)F)cc1)N1CCC(Cc2ccccc2)CC1` [Example 45, (S)-N-Benzyl-N-[1-benzyl-2-(4-benzyl-piperidin-1-yl)-2-oxo-ethyl]-3-(4-trifluoromethyl-phenyl)-acrylamide]: the IC50 worked out at 4 nM.

For the molecule `CC(=O)N1CCN(c2ccc(CN(C(=O)C=Cc3ccc(C(F)(F)F)cc3)[C@@H](Cc3ccccc3)C(=O)N(C)CCOCc3ccc4c(c3)nnn4C)cc2)CC1` [Example 189, (S)-N-[4-(4-Acetyl-piperazin-1-yl)-benzyl]-N-(1-{methyl-[2-(1-methyl-1H-benzotriazol-5-ylmethoxy)-ethyl]-carbamoyl}-2-phenyl-ethyl)-3-(4-trifluoromethyl-phenyl)-acrylamide, formic acid], the half-maximal inhibitory concentration (IC50) is 9 nM.

These data come from patent US20110224210A1, “NOVEL BIS-AMIDES AS ANTI-MALARIAL AGENTS” (priority 2008, published 2011).
